{
  "source": "patent EP3481220B1",
  "about": "“SWEET RAPESEED PROTEIN ISOLATE AND PROCESS FOR OBTAINING IT” (DSM IP Assets B.V., priority 2016, dated 2018)",
  "key": {"[1]": {"assay": "Equal sweetness, sensory panel, versus sucrose solutions", "format": "in vivo", "details": "scored against the reference = 50, line scale 0-100", "description": "The flavor characteristics can be evaluated by a sensory panel using techniques known in the art. Investigating the effects of flavor, mouthfeel and aftertaste requires an extended evaluation of the products and this was done by using Quantitative Descriptive Analysis (QDA). Therefore, a sensory panel assessed the protein products taking in account Good Sensory Practices. During the QDA measurement the intensities of the attributes were obtained by the Fizz sensory data acquisition system, using unstructured line scales ranging from 0-100. The products were evaluated twice with 11 panel members. The products were given one-by-one to the panel members. The products were given in a white polystyrene cup with a white polystyrene spoon in order to prevent sedimentation during tasting. Data were analyzed using SenPaq (Ql-statistics).\nThe panelists received a reference sample (2 wt.% rapeseed protein isolate in water) with a potency designated by an arbitrary sweetness value of 50 (middle of the scale), followed by several sucrose solutions coded and balanced with potencies higher than or lower than the reference. Panelists scored for example a sample that is perceived as twice as strong as the reference with a score of 100, half the sweetness was given a value of 25. Scores were gathered by means of FIZZ data acquisition on unstructured line scales ranging from 0-100. The various concentrations of sucrose were first determined by a pretest.\nTo identify the sweetness character (i.e. initial sweetness, lingering) of 2% rapeseed protein isolate in water compared to sucrose solutions (10 g/l, 20 g/l, 30 g/l, 40 g/l and 50 g/l) the samples were taken into the mouth on instruction of the panel leader. Directly the intensity of the sweetness was scored. After three seconds the sample was swallowed and the intensity was scored again, followed by scoring at 5, 10, 20, 30, 60, 90 and 120 seconds after swallowing. Intensity scores were given on unstructured 0-100 line scales in FIZZ. The samples were evaluated one-by-one in duplicate according to an optimally balanced design. Equal sweetness and sweetness character was assessed by comparing a 2 wt.% aqueous solution of the resultant native rapeseed protein isolate with aqueous sucrose solutions of different strengths at room temperature."}, "[2]": {"assay": "Conductivity in aqueous solution (conductivity meter)", "format": "physicochemical", "details": "aqueous 5 g/l solution; given for comparison"}},
  "data": [
    {"smiles": "OC[C@H]1O[C@@](CO)(O[C@H]2O[C@H](CO)[C@@H](O)[C@H](O)[C@H]2O)[C@@H](O)[C@@H]1O", "note": "[Sucrose]", "values": [
      {"measurement": "Relative Sweetness", "setting": "[1]; 10 g/l aqueous solution", "result": 35},
      {"measurement": "Relative Sweetness", "setting": "[1]; 20 g/l aqueous solution", "result": 49},
      {"measurement": "Relative Sweetness", "setting": "[1]; 30 g/l aqueous solution", "result": 68},
      {"measurement": "Relative Sweetness", "setting": "[1]; 40 g/l aqueous solution", "result": 70},
      {"measurement": "Relative Sweetness", "setting": "[1]; 50 g/l aqueous solution", "result": 78}
    ]},
    {"smiles": "[Cl-].[Na+]", "note": "[sodium chloride]", "values": [
      {"measurement": "conductivity", "setting": "[2]", "result": "around 9,400 µS/cm"}
    ]}
  ]
}
